Measurements as given in ChEMBL document CHEMBL5465560, “Selectivity Literature for EUbOPEN Chemogenomic Library” (2024).

Columns and labels:
[1] = target: T1, Mitogen-activated protein kinase 15 (Homo sapiens) (UniProt Q8TD08); experiment: Selectivity interaction (KinomeScan (DiscoverX)) EUB0000229b MAPK15; conditions: at 10 µM
T1 sequence (whole entry): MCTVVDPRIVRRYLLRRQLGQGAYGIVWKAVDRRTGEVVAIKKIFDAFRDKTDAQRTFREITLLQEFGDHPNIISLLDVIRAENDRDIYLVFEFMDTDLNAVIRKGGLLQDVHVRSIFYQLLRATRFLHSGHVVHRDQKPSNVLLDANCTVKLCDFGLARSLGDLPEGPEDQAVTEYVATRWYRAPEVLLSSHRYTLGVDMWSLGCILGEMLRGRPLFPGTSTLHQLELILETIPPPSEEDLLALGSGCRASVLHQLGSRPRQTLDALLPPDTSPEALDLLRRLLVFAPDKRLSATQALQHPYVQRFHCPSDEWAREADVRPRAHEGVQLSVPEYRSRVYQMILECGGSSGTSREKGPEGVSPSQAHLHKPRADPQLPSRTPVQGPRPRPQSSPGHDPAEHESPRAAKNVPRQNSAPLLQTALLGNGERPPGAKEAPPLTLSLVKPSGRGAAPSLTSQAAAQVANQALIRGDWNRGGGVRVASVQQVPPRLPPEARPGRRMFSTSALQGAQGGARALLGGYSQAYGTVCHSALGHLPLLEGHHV

[2] = target: Casein kinase I isoform gamma-3 (Homo sapiens) (UniProt Q9Y6M4); experiment: Selectivity interaction (KinomeScan (DiscoverX)) EUB0000229b CSNK1G3; conditions: at 10 µM
[3] = target: TGF-beta receptor type-2 (Homo sapiens) (UniProt P37173); experiment: Selectivity interaction (KinomeScan (DiscoverX)) EUB0000229b TGFBR2; conditions: at 10 µM
[4] = target: Tyrosine-protein kinase JAK2 (Homo sapiens, UniProt O60674); experiment: Selectivity interaction (NanoBRET assay (HEK293T cells)) EUB0001559a JAK2; format: cell-based, HEK-293T
Focal adhesion kinase 1 = Focal adhesion kinase 1 (Homo sapiens, UniProt Q05397); experiment: Selectivity interaction (KinomeScan (DiscoverX)) EUB0001079a PTK2; conditions: at 1 µM
[5] = target: T2, Protein kinase C epsilon type (Homo sapiens) (UniProt Q02156); experiment: Selectivity interaction (KinomeScan (DiscoverX)) EUB0001079a PRKCE; conditions: at 1 µM
T2 sequence (whole entry): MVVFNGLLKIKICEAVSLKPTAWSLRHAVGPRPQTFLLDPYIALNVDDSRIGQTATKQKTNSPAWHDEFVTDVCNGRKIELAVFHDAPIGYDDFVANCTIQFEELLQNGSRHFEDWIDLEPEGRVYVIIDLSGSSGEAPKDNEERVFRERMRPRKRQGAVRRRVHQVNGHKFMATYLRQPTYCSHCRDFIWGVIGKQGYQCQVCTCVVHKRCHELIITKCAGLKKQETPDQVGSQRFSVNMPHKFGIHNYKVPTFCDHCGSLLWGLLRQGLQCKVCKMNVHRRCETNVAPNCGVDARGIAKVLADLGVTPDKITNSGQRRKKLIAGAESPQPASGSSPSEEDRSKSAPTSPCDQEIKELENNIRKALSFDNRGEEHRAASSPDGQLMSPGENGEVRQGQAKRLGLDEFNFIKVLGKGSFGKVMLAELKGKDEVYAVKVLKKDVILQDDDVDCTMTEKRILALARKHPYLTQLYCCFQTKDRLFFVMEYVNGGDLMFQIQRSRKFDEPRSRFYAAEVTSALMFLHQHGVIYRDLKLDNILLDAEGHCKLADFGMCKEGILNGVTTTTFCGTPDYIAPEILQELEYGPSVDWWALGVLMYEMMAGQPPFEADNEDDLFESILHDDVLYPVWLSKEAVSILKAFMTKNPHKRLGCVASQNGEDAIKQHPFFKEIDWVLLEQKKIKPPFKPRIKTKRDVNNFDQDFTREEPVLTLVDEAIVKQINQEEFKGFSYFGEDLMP

[6] = target: DNA-dependent protein kinase catalytic subunit (Homo sapiens) (UniProt P78527); experiment: Selectivity interaction (ActivX KiNativ screen (ex vivo kinase selectivity in human PBMCs)) EUB0001619a PRKDC; format: cell-based; conditions: PBMC, at 1 µM
[7] = target: Mitogen-activated protein kinase kinase kinase 10 (Homo sapiens) (UniProt Q02779); experiment: Selectivity interaction (KinomeScan (DiscoverX)) EUB0000607a MAP3K10; conditions: at 10 µM
[8] = target: T3, Serine/threonine-protein kinase Nek9 (Homo sapiens) (UniProt Q8TD19); conditions: at 10 µM
T3 sequence (whole entry): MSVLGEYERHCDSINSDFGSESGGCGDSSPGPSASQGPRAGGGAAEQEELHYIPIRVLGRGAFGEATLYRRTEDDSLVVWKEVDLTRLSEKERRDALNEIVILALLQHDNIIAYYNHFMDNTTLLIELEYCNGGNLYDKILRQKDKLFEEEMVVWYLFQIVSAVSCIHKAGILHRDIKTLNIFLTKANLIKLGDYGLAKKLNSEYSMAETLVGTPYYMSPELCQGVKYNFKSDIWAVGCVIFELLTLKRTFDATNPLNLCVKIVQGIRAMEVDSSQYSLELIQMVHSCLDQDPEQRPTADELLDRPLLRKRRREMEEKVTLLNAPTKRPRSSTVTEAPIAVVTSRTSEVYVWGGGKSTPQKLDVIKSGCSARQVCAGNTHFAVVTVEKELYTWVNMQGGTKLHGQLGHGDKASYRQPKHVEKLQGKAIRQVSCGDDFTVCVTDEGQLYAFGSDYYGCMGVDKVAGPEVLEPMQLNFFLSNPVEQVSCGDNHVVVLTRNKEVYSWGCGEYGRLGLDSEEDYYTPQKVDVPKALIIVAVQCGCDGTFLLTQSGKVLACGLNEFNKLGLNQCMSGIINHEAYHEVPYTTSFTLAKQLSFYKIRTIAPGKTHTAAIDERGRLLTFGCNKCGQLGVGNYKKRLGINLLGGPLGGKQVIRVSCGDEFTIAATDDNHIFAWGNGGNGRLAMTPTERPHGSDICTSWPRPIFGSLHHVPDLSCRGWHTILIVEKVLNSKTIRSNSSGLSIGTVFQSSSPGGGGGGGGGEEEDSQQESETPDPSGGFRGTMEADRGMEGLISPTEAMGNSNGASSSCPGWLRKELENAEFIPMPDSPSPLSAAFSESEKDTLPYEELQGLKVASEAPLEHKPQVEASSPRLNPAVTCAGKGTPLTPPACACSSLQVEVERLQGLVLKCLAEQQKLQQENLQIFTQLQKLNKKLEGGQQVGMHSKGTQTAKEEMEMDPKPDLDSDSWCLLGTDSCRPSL

Chain of TGF-beta receptor type-2 (Homo sapiens) (P37173 whole entry): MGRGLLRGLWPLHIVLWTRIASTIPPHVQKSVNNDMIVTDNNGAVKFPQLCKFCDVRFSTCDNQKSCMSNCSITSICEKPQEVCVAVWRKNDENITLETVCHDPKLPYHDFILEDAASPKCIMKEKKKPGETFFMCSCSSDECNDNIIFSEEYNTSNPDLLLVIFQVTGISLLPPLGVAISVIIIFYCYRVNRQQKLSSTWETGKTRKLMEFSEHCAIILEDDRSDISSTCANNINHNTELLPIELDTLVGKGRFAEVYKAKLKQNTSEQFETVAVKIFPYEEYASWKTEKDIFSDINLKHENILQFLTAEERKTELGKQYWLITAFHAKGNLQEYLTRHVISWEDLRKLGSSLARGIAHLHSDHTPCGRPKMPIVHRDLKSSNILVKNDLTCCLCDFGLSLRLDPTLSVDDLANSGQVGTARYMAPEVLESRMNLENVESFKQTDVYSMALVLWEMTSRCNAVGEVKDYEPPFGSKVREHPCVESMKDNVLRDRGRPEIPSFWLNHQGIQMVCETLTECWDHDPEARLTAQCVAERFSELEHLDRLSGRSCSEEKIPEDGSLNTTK
Chain of DNA-dependent protein kinase catalytic subunit (Homo sapiens) (P78527 whole entry): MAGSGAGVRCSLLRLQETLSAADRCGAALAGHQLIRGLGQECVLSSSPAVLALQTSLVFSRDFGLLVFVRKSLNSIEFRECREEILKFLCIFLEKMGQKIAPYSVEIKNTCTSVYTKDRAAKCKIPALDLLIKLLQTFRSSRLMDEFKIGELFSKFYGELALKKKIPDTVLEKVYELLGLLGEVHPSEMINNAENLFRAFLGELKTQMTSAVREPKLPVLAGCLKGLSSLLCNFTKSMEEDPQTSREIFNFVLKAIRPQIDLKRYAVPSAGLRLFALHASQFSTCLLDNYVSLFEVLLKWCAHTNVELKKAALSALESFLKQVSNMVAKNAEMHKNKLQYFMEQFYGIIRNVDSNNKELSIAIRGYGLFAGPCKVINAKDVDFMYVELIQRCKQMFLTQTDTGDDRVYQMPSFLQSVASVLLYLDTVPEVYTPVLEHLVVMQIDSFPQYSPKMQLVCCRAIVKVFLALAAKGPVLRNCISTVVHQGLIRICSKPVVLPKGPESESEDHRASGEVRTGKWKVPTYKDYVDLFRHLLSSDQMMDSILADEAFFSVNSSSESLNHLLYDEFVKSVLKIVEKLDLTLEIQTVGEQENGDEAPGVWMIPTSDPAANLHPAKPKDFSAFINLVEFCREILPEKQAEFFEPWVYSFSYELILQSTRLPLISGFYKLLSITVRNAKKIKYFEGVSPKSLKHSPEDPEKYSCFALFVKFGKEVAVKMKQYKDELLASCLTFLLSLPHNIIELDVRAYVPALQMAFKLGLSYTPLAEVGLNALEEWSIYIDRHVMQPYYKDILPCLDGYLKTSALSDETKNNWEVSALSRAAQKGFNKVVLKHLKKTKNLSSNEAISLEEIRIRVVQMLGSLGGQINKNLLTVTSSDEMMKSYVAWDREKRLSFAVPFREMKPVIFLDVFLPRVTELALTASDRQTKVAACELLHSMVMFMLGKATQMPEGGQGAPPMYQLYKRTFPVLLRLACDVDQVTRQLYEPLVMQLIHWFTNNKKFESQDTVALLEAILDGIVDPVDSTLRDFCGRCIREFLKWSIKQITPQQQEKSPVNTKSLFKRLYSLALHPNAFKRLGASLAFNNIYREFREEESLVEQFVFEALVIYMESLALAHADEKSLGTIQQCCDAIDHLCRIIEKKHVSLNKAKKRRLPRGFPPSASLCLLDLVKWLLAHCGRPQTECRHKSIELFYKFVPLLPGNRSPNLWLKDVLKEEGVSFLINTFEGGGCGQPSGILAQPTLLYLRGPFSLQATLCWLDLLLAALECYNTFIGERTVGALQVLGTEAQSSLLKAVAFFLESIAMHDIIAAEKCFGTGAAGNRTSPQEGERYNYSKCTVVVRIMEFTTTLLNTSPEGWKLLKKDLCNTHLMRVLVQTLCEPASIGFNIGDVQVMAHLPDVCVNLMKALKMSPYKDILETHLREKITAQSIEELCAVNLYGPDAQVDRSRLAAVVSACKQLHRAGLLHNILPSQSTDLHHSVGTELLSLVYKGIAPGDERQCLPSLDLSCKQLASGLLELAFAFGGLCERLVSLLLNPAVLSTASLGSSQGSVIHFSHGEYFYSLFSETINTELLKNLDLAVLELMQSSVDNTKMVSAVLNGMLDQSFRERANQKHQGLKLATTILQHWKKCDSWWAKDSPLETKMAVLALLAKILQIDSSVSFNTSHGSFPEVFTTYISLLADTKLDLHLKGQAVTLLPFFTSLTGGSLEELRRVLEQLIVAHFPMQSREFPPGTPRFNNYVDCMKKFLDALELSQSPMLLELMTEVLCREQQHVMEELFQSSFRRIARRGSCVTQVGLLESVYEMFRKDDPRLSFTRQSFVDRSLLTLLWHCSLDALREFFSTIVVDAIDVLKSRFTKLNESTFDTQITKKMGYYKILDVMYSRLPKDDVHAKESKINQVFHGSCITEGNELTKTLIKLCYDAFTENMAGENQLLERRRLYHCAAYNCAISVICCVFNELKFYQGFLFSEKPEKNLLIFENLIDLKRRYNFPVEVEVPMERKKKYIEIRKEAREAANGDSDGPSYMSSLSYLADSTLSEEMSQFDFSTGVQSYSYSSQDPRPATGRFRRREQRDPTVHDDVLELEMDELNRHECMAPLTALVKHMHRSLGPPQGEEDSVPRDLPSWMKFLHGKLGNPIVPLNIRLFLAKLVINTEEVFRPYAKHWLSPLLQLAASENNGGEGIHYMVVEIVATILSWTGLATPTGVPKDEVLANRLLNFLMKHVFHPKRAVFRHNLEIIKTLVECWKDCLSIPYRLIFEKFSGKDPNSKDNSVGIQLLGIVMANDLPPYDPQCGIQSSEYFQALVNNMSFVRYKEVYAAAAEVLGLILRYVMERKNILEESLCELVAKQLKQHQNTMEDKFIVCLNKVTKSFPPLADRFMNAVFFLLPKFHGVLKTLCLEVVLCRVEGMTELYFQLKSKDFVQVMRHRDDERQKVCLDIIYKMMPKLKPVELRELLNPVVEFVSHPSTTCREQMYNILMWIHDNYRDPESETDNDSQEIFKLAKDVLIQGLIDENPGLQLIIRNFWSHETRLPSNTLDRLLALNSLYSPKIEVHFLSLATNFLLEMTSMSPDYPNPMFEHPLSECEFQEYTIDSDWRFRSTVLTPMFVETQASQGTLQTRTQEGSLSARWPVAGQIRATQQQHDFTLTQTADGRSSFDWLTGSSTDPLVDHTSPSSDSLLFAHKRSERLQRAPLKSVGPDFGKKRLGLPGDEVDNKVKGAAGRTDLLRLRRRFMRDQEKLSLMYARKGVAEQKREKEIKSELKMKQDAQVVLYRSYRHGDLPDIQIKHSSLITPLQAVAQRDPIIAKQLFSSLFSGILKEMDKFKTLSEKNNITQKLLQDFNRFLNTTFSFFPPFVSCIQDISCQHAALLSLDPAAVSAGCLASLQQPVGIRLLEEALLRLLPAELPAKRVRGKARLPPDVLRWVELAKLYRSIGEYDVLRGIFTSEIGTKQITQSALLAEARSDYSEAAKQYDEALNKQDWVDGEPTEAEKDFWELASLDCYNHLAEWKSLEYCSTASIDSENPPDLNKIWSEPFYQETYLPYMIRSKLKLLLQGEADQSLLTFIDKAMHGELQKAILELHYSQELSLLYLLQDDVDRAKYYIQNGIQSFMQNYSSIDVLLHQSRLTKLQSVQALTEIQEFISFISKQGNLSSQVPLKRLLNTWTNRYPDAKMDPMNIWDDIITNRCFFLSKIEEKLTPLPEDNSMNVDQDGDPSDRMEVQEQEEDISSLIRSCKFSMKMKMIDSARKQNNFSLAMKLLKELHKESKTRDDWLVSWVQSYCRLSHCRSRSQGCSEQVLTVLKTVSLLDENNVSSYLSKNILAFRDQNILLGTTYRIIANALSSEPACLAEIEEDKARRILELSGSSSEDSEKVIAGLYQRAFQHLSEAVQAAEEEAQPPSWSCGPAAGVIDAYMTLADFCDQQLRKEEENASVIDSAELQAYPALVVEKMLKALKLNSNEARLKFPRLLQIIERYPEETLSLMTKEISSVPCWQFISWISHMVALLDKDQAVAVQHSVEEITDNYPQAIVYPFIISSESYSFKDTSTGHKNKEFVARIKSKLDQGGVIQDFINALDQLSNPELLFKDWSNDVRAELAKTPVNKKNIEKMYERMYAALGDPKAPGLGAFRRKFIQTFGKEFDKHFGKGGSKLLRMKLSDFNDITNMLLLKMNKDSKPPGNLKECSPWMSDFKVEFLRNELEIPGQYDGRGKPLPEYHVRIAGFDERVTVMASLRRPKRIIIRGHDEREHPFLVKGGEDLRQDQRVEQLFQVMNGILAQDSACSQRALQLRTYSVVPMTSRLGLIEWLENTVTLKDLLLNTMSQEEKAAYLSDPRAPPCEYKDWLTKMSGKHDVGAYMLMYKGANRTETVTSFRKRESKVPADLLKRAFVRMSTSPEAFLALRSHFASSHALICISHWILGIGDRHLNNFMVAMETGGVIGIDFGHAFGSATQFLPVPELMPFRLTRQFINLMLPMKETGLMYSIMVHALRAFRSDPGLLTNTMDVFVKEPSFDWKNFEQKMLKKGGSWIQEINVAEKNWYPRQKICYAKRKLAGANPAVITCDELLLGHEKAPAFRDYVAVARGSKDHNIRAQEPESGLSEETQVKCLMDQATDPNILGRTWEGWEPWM
Chain of Casein kinase I isoform gamma-3 (Homo sapiens) (Q9Y6M4 whole entry, looked up, canonical isoform): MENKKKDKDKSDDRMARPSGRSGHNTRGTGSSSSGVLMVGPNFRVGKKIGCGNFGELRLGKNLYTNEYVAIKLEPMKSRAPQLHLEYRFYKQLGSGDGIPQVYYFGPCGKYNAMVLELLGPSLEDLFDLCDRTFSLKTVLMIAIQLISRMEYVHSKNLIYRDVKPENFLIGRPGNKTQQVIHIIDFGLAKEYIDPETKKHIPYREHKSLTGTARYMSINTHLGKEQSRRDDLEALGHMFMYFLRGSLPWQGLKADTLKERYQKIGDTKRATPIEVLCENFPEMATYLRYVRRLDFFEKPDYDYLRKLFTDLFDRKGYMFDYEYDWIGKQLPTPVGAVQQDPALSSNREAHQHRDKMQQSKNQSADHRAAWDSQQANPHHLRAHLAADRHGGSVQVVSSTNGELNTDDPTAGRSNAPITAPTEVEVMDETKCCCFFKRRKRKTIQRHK

Question: `COc1cc(N(C)c2ccnc3ccc(C(F)(F)F)cc23)cc(OC)c1OC` was tested. Which % binding [1] did it give?
Answer: 100%

Question: What about the % binding [2] of the same molecule?
Answer: 86%

Question: And the % binding [3]?
Answer: 94%

Question: Which EC50 [4] does the source give for `CN(C(=O)c1cnn2cccnc12)c1cc2c(cc1N1CCOCC1)C(=O)N(C[C@@H](F)C(C)(C)O)C2` here?
Answer: > 50 µM

Question: `Nc1cnc(N2CCc3cc(S(=O)(=O)Nc4c(F)cc(Cl)cc4F)cc(N4CCCC4=O)c32)nc1` [TP-020n] was tested. Which % of control (Focal adhesion kinase 1) did it give?
Answer: 99%

Question: What about the % of control [5] of the same molecule?
Answer: 100%

Question: With `N#Cc1cccc(-c2c[nH]c3ncnc(N4CCOCC4)c23)c1` as the molecule, how does the % of inhibition [6] read?
Answer: -2%

Question: `CNC(=O)Nc1ccc(-c2nc(N3CC4CCC(C3)O4)c3cnn(C4CCC5(CC4)OCCO5)c3n2)cc1` was tested. Which % of control [7] did it give?
Answer: 100%

Question: For `CCN(CC)CCCCNc1ncc2cc(-c3cc(OC)cc(OC)c3)c(NC(=O)NC(C)(C)C)nc2n1`, which % of control [8] is on record?
Answer: 100%
